For test [1], the target named is T1, Heat shock protein HSP 90-beta (Homo sapiens, UniProt P08238). Kind of test: Thermofluor Assay. An excerpt: Thermofluor Assay
Background: In DSF a fluorescence change marks the thermal transition of the protein.

The target in test [2] is T1, Heat shock protein HSP 90-beta. Kind of test: ITC.
Text: ITC

T1 sequence (P08238 whole entry): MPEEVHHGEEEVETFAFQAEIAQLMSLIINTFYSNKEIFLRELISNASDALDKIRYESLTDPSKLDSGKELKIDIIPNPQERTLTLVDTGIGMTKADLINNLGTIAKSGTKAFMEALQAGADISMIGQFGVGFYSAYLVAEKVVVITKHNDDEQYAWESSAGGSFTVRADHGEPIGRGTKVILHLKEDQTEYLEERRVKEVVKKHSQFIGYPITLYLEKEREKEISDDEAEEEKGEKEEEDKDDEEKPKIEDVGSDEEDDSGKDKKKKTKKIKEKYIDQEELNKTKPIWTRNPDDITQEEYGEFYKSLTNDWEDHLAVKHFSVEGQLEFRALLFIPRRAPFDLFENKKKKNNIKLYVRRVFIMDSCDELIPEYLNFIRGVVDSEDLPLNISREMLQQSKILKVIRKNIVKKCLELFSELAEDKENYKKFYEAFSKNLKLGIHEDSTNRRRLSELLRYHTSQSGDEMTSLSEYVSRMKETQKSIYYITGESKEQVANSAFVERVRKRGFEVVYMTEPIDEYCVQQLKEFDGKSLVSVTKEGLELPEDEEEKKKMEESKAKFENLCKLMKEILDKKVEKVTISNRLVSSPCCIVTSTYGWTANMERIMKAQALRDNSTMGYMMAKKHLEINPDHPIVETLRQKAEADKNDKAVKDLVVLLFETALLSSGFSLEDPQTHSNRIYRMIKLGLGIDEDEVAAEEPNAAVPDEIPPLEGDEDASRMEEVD

For the compound `CC(C)c1ccc(S(=O)(=O)NCc2ccc3c(c2)[nH]c(=O)n3-c2cc(Cl)c(O)cc2O)cc1` [hsp90_38], the Kd was 0.225 µM in test [1] and 0.115 µM in test [2].

Turning to `CC(=O)Oc1ccc([N+](=O)[O-])c2ccccc12` [hsp90_165], the Kd in test [1] was above 100 µM.

Consider `Cc1cc(-n2nc(C(=O)NCC3COC(C)(C)O3)cc2C)nc(N)n1` (centres undefined) [hsp90_95], for which the Kd in test [1] was 91 µM; in test [2] it was 64 µM.

`COc1ccc(-c2cc(-c3ccc(Cl)cc3Cl)nc(N)n2)c(OC)c1` [hsp90_84] yielded a Kd in test [1] of 265 µM.

Consider `Nc1nc(N)nc(-c2ccccc2Cl)n1` [hsp90_179], for which the Kd worked out at 20.4 µM in test [1] and 7.45 µM in test [2].

Turning to `CCCc1cc(-n2c(=O)[nH]c3ccccc32)c(O)cc1O` [hsp90_12], the figures for the Kd in test [1] and in test [2] were 0.123 µM and 0.0686 µM, respectively.

Take `O=C(c1ccc(O)cc1)c1ccc(O)cc1O` [hsp90_176]: the Kd in test [1] amounted to 10.6 µM; in test [2], 3.11 µM.

Compound `O=C(c1ccc(O)cc1O)c1ccc(O)c(O)c1O` [Polyhydroxy benzophenone, 8] showed a Kd in test [1] above 100 µM.

Consider `O=C(c1cccc(O)c1)c1ccc(O)cc1O` [Polyhydroxy benzophenone, 12], for which the Kd in test [1] is 28.9 µM; in test [2], 11.5 µM.

As for `Nc1nc(Cl)c(/C=N/O)c(-c2ccc(Cl)cc2Cl)n1` [hsp90_87], binding in test [1] was put at a Kd of 2.25 µM.

With `O=C(CCl)NCc1cc(C(=O)c2ccc(OCCO)c(Cl)c2Cl)cc(Cl)c1O` [hsp90_171], in test [1], the Kd was above 100 µM.

In the case of `COC(=O)c1cc(-n2c(=O)[nH]c3cc(C(F)(F)F)cc(Cl)c32)c(O)cc1OC` [hsp90_13], the Kd in test [1] is above 100 µM.

`CC1c2cc(-n3c(=O)[nH]c4ccccc43)c(O)cc2OC1(C)C` (centres undefined) [hsp90_35] displayed an equilibrium dissociation constant (Kd) in test [1] above 100 µM.

As to `Cn1c2c([n+](C)c1CCl)C(=O)c1ccccc1C2=O` [hsp90_128], the Kd in test [1] was above 100 µM.

Take `CCCC(=O)c1cc(O)c(O)c(O)c1` [hsp90_151]: the Kd in test [1] was above 100 µM.

Consider `O=c1[nH]c2ccccc2n1-c1cc(-c2cccnc2O)c(O)cc1O` [hsp90_34], for which the Kd in test [1] was found to be 94.8 µM; in test [2], 54 µM.

For the compound `O=C(c1ccc(O)cc1)c1cc(Cl)ccc1O` [hsp90_164], the Kd in test [1] turned out to be 7.51 µM; in test [2], 8.33 µM.

Turning to `O=c1[nH]c2ccccc2n1-c1cc(-c2ccnc3ccccc23)c(O)cc1O` [hsp90_23], binding in test [2] was characterised by a dissociation constant (Kd) of 3.06 µM.

`CC(=O)Oc1ccc2c(=O)c(Cc3ccccc3)c(C)oc2c1OC(C)=O` [hsp90_174]: the Kd in test [1] is above 100 µM.

As for `O=c1[nH]c2cc(CNS(=O)(=O)c3cccnc3)ccc2n1-c1cc(Cl)c(O)cc1O` [hsp90_44], the results for the Kd in test [1] and in test [2] were 0.376 µM and 0.0268 µM, respectively.

`Cc1cc(CNC(=O)N2CCN(S(C)(=O)=O)C2=O)nc(N)n1` [hsp90_120]: in test [1], the Kd was above 100 µM.

With `COc1cc(-c2cc(-n3c(=O)[nH]c4ccccc43)c(O)cc2O)cc(OC)c1OC` [hsp90_24], the figures for the Kd in test [1] and in test [2] were 0.993 µM and 10.3 µM, respectively.

In test [1], `CCOC(=O)CO/N=C/c1c(Cl)nc(N)nc1-c1ccc(Cl)cc1Cl` [hsp90_91] returned a Kd of 11.2 µM.

Take `O=c1[nH]c2ccccc2n1-c1cc(-c2ccccc2O)c(O)cc1O` [hsp90_10]: the Kd amounted to 4.58 µM in test [1] and 6.58 µM in test [2].

`Nc1nc(-c2ccc(C(F)(F)F)cc2Cl)cc(-c2ccc(C(F)(F)F)cc2Cl)n1` [hsp90_77] showed a dissociation constant (Kd) in test [1] above 100 µM.

`O=c1[nH]c2cc(CNS(=O)(=O)c3ccccc3O)ccc2n1-c1cc(Cl)c(O)cc1O` [hsp90_43]: the Kd stood at 0.172 µM in test [1] and 0.0107 µM in test [2].

Regarding `COc1cccc(OC)c1-c1cc(C)nc(N)n1` [hsp90_70], the Kd was 2.28 µM in test [1] and 1.48 µM in test [2].

As for `Cc1cc(-c2ccc([N+](=O)[O-])cc2Cl)nc(N)n1` [hsp90_73], the Kd in test [1] was 4.53 µM; in test [2], 0.393 µM.

On to `CCc1cc(-n2c(=O)[nH]c3ccccc32)c(O)cc1O` [hsp90_40], for which the Kd in test [1] was found to be 0.165 µM; in test [2], 0.069 µM.

As a reminder, the Kd is the concentration at which binding is half-saturated. A low value points to a tighter complex.
